Results: patent US20240124539A1, “CROSSLINKED HELIX DIMER MIMICS OF SOS AND METHODS OF USING SAME” (NEW YORK UNIVERSITY, priority 2020, published 2024)
Read-outs that look alike come from different tables or passages of the source. Residues, ends and D or L forms follow the SMILES beside them.

Assays:
[1] = tested on: ERK phosphorylation in H358 cells; test: ERK activation assay, H358; format: cell-based; conditions: H358 cells, 1, 5, 10 μM, 6 hours
Procedure: (§1) H358 or HeLa cells were initially seeded in 6-well plates (1x10^6 cells/well) and allowed to attach overnight. The cells were then incubated with indicated peptides dissolved in complete medium at specified concentrations for 6 hours at 37° C. The cells were washed twice with ice-cold PBS and then lysed in cold RIPA buffer (200 μL/well) containing 25 mM Tris-HCl, pH 7.6, 150 mM NaCl, 1% NP-40, 1% sodium doexycholic acid, 0.1% SDS, Roche Complete Protease inhibitor cocktail (1X, Sigma-Aldrich, P2714), and Roche PhosSTOP phosphatase inhibitor cocktail tablets (1X, Sigma-Aldrich, 4906845001). The cells are kept on ice for 5 minutes with occasional swirling for uniform spreading. Cell lysates are generated with a cell scraper, transferred to a microcentrifuge tube, and centrifuged at 13,000 rpm for 10 minutes at 4° C. The clarified supernatant was collected, and the total protein concentration was measured by Pierce BCA protein assay. The lysates were subjected to SDS-PAGE (10 μg/lane loading) and Western Blot analysis via immunoblotting. Primary antibodies include Phospho-p44/42 MAPK (Erk1/2) (Thr202/Tyr204) (Cell Signaling 4370), p44/42 MAPK (Erk1/2) (Cell Signaling 4695), Ras (Abcam ab 108602), and a-tubulin (Cell Signaling 2144). Secondary antibodies include anti-rabbit IgG, HRP-linked antibody (Cell Signaling 7074P2, 1:2000). […]

H358 cells = test: Flow cytometry cellular uptake, H358; format: cell-based; conditions: fluorescently labeled peptide 1 μM, 1 h
Procedure: (§2) All compounds are dissolved as concentrated stocks in DMSO.

[2] = tested on: ERK phosphorylation in HeLa cells; test: ERK activation assay, HeLa; format: cell-based; conditions: HeLa cells (wild-type Ras), 1, 5, 10 μM, 6 hours
Procedure: as §1

T24 cells = test: Flow cytometry cellular uptake, T24; format: cell-based; conditions: fluorescently labeled peptide 1 μM, 1 h
Procedure: as §2

[3] = target: T1, wild-type His6-tagged H-Ras (1-166) pre-loaded with GDP (Homo sapiens, UniProt P01112); test: Fluorescence polarization binding assay, wild-type H-Ras-GDP
T1 construct: wild-type and mutant His6-tagged H-Ras (1-166) pre-loaded with GDP; made in house; host or cells: Escherichia coli (BL21)
T1 sequence (P01112 1-166): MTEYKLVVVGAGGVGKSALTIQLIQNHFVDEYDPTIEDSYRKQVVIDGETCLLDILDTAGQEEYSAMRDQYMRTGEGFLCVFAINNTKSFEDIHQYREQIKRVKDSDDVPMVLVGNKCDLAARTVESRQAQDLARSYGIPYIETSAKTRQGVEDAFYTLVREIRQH
From the text: GTP of the Ras-specific nucleotide exchange factor SOS. Cell 112, 685-695 (2003).

[4] = tested on: Ras wild type and mutant cell lines; test: MTT cell viability assay; format: cell-based; conditions: 72 hours, in presence of serum; oncogenic Ras mutant cell lines in comparison to wild-type Ras HeLa control
Procedure: Cell viability was monitored using the MTT (Sigma-Aldrich, M2128) or CellTiter-Glo Luminescent cell viability assay (Promega).
Cell viability was monitored using the MTT (Sigma-Aldrich, M2128) […] cell viability assay. Cells were plated in clear 96-well plates at 2000 cells/well and allowed to affix overnight at 37° C. Each well is gently aspirated and washed with serum-free medium before introducing peptide inhibitors dissolved in complete medium with 0.5% DMSO (v/v final) to desired concentrations (90 μL/well). The cells are incubated in the presence of peptide for 72 hours at 37° C. MTT reagent solution is composed of Thiazolyl Blue Tetrazolium Bromide dissolved in Dulbecco's Phosphate Buffered Saline (DPBS), pH 7.4 to a concentration of 5 mg/mL and subsequently sterile-filtered into a light-protected container. MTT reagent was added to each well (0.45 mg/mL/well final). The cells are incubated at 37° C. for an additional 4 hours. Upon careful removal of the supernatant, 150 μL DMSO (solubilization solution) is added to each well and mixed to ensure complete solubilization and release of the insoluble purple formazan precipitate into solution. Absorbance values are recorded with a Synergy HT Multi-Detection Microplate Reader (BioTek) at 570 nm.

wild-type H-Ras-GDP = target: T2, wild-type H-Ras-GDP (Homo sapiens, UniProt P01112); test: Microscale thermophoresis (MST), wild-type H-Ras-GDP; format: binding
T2 construct: Wild-type and mutant N-terminal His6-H-Ras (residues 1-166) in pProEx HTb expression vector; His6 (N); made in house; host or cells: Escherichia coli (BL21)
T2 sequence (P01112 1-166): as above
Procedure: Fluorescent labeling of the H-Ras protein was performed using the Monolith Protein Labeling Kit RED-MALEIMIDE 2nd Generation from NanoTemper (MO-L014) or AFDye 647 maleimide fluoroprobes (1122-1). Briefly, 20 nM of H-Ras protein was labeled with 1.5 equivalents of cysteine reactive dye in the 1× PBS under dark for 90 minutes. Labeled Ras proteins were then purified via the kit provided column, and the Degree of Label (DOL) was calculated by using the dye's absorbance and protein's original absorbance. The observed DOL value after the labeling for wild-type H-Ras-GDP was 0.43 and G12V H-Ras-GDP was 0.98.
MST binding assays were conducted with NanoTemper Monolith NT.115 Pico. Assay conditions were optimized with a premium coated capillary tube from NanoTemper to avoid random adsorption. Measurement was performed at 25° C. using 10-15% laser excitation power for 20 seconds. The assay buffer was composed of 50 mM Tris, 100 mM NaCl, and 0.1% pluronic acid. 5-10 nM of the dye labeled protein was exposed to serial dilutions of indicated CHDs and incubated for 90 mins in room temperature before the measurements. Error bars are generated from triplicates. Binding affinities were obtained from the MO analysis software in NT.115 Pico with the following equation:
[formula] [formula] • where, Unbd=Response value of unbound state Bd=Response value of bound state TC=Final concentration of fluorescent molecule

SW780 cells = SW780 cells (oncogenic FGFR3 fusions), 1 μM, 1 h
Procedure: The indicated cell lines were seeded at 1×10^5 cells/well in clear polystyrene 24-well plates (Corning) and incubated overnight. The initial growth medium is replaced with serum-free medium and incubated for 2 hours at 37° C. Upon aspiration, the cells are incubated in serum-free medium containing 0.4% DMSO (v/v) for one hour. The cells were then treated with 1 μM (final) of fluorescein-conjugated peptides in serum-free medium for another hour while protected from light. All compounds are dissolved as concentrated stocks in DMSO. Each well was aspirated and treated with 1× trypsin (0.25% trypsin, 2.21 mM EDTA, Corning Cellgro) for 10 minutes at 37° C. After trypsinization, the resulting solution was mixed with cold serum-free medium and collected. The samples are centrifuged at 500 rpm for 5 minutes at 4 °C.
The supernatant was removed, and the cell pellets were resuspended with cold PBS before placed on ice. Each sample was treated with 10% trypan blue (v/v) immediately before analysis by flow cytometry on a Becton Dickinson Accuri flow cytometer. The presented data consists of the median fluorescence intensities for at least 10,000 cells/sample and processed using FlowJo (Tree Star Inc.).

[5] = compared to CHD^Sos-2
[6] = target: G12D mutant H-Ras pre-loaded with GDP (Homo sapiens, UniProt P01112, G12D)
Chain of G12D mutant H-Ras pre-loaded with GDP (P01112 1-166 G12D): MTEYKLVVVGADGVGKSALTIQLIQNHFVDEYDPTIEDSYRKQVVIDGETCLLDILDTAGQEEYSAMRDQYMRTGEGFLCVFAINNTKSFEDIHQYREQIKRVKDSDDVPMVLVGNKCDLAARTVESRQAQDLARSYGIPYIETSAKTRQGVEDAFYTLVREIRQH
Procedure: (§3) Wild-type and mutant N-terminal His6-H-Ras (residues 1-166) in pProEx HTb expression vector were expressed in Escherichia coli (BL21). Cells were grown at 37 ° C. to an absorbance of 0.7 at 600 nm. Protein expression was induced with 500 μM isopropyl β-D-1-thiogalactopyranoside (IPTG) for 6 hours at 30° C. or overnight at 18° C. The bacterial cells were pelleted via centrifugation at 4500 rpm for 15 minutes. Bacterial pellets were resuspended in a lysis buffer containing 20 mM Tris pH 7.4, 300 mM NaCl, 2 mM 2-mercaptoethanol, and a complete, EDTA-free protease inhibitor cocktail (Roche). The lysis, elution and dialysis buffers were also supplemented with 2.5 mM MgCl2. The resuspended pellets were sonicated using a Branson Cell Disrupter 200. Clarified lysates were formed upon centrifugation at 13,000 rpm for 20 minutes at 4° C. and incubated with charged Ni-NTA resin (Invitrogen) at 4° C. for 1 hour. The resin beads were washed five times with resuspension buffer containing 5 mM imidazole. The His6-tagged proteins were eluted via gravity flow with buffer containing 200 mM imidazole in buffer containing 20 mM Tris, 300 mM NaCl, pH 7.4. Eluted proteins were dialyzed twice against buffer containing 20 mM Tris, 300 mM NaCl, 2.5 mM MgCl2, pH 7.4 for H-Ras. For HSQC and photoaffinity labeling studies, the polyhistidine tag was cleaved using Tobacco Etch Virus (TEV) protease before proceeding to nucleotide loading.
(§4) The generated binding affinity (KD) values for each compound are from biological triplicate studies and were determined via fitting to a sigmoidal dose-response nonlinear regression model on Graphpad Prism 6.

[7] = target: G12C mutant H-Ras pre-loaded with GDP (Homo sapiens, UniProt P01112, G12C)
Chain of G12C mutant H-Ras pre-loaded with GDP (P01112 1-166 G12C): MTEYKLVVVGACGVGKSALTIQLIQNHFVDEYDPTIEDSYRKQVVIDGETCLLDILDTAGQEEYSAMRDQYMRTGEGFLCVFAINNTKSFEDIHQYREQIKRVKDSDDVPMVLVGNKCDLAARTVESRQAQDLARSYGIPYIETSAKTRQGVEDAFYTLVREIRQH
Procedure: as §3, §4

[8] = target: G12V mutant H-Ras pre-loaded with GDP (Homo sapiens, UniProt P01112, G12V)
Chain of G12V mutant H-Ras pre-loaded with GDP (P01112 1-166 G12V): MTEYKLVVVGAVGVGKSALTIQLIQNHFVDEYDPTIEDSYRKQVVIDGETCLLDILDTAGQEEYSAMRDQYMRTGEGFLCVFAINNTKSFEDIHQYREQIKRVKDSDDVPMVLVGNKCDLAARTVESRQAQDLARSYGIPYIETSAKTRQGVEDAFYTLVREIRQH
Procedure: as §3, §4

in vitro = conditions: bovine, 25% fetal bovine serum
Procedure: A 45 μL mixture of 33% FBS (v/v) in serum-free medium was prepared for each sample. The addition of 15 μL of indicated peptide in serum-free medium (25% FBS final) per each experiment was recorded as the starting time point. Time points of 5 min, 6 hours, 12 hours, and 24 hours were analyzed in triplicate. Each experiment was quenched at the determined time point by adding 30 μL 100% EtOH, which was prepared at −70° C. After cooling on ice for 10 minutes, each sample was pelleted at 14,000× g for 5 minutes. 30 μL of the supernatant was isolated, and 3 μL of 500 μM L-Tryptophan was titrated into the sample to be used as an internal standard. The resulting mixture was then immediately subjected to RP-HPLC with a C18 3.5 μm 2.1×150 mm analytical column and monitored at 280 nm. Eluting peaks were collected, and the mass of each peak was determined using MALDI-TOF spectroscopy. Integrated peak area of non-degraded peptides was used to determine the percent surviving in each given condition.

Compound	effect on ERK phosphorylation [1]	cellular uptake, median fluorescence intensity (H358 cells)	effect on ERK phosphorylation [2]	cellular uptake, median fluorescence intensity (T24 cells)	Kd ([3]; fluorescein-derivatized CHD, GDP-bound wild-type H-Ras, fluorescence polarization, read-out: binding affinity, Kd) [µM]	cell viability (MTT) [4]	concentration above which aggregation was observed (wild-type H-Ras-GDP; MST with wild-type H-Ras-GDP, interrupted binding isotherm)	Kd (wild-type H-Ras-GDP; MST, fluorescently-labeled Ras, read-out: binding affinity, Kd) [µM]	Kd [3] [µM]	cellular uptake (SW780 cells)	aqueous solubility [5]	Kd (wild-type H-Ras-GDP) [µM]	binding affinity [6]	binding affinity [7]	binding affinity [8]	half-life (in vitro) [h]	remaining at 24 h (in vitro) [%]
CC[C@H](C)[C@H](NC(=O)[C@H](C)NC(C)=O)C(=O)NCC(=O)N[C@@H](CCCNC(=N)N)C(=O)N[C@@H](CC(C)C)C(=O)N[C@@H](CSCc1ccc(COCc2ccc(CSC[C@H](NC(=O)[C@H](CC(C)C)NC(=O)[C@H](CCCNC(=N)N)NC(=O)[C@H](C)NC(=O)[C@H](CC(C)C)NC(=O)[C@H](CCC(=O)O)NC(=O)[C@H](CCCNC(=N)N)NC(=O)[C@H](CCC(=O)O)NC(=O)[C@H](CC(C)C)NC(=O)[C@H](CCC(=O)O)NC(=O)[C@H](CCCNC(=N)N)NC(=O)[C@H](CC(C)C)NC(=O)[C@H](CCCNC(=N)N)NC(=O)[C@H](Cc3c[nH]c4ccccc34)NC(=O)[C@H](C)NC(=O)[C@H](CC(C)C)NC(C)=O)C(N)=O)cc2)cc1)C(=O)N[C@H](C(=O)N[C@@H](CCC(=O)O)C(=O)N[C@H](C(=O)N[C@@H](CC(C)C)C(=O)N[C@@H](CCCNC(=N)N)C(=O)N[C@@H](CC(C)C)C(=O)N[C@@H](CCCNC(=N)N)C(=O)N[C@@H](CC(N)=O)C(=O)NCC(=O)N[C@@H](C)C(N)=O)[C@@H](C)CC)[C@@H](C)O [CHC^Sos-3] (HELM PEPTIDE1{[ac].A.I.G.R.L.C.T.E.I.L.R.L.R.N.G.A.[am]}|PEPTIDE2{[ac].L.A.W.R.L.R.E.L.E.R.E.L.A.R.L.C.[am]}|CHEM1{[c1cc(C[*:1])ccc1COCc1ccc(C[*:2])cc1]}$PEPTIDE1,CHEM1,7:R3-1:R1|PEPTIDE2,CHEM1,17:R3-1:R2$$$V2.0)	did not suppress ERK phosphorylation	lower uptake than CHC^Sos-5	did not suppress ERK phosphorylation	lower uptake than CHC^Sos-5	> 100	little to no effect	higher than 3 μM	> 100	–	–	–	–	–	–	–	–	–
CC[C@H](C)[C@H](NC(=O)[C@H](Cc1c[nH]c2ccccc12)NC(C)=O)C(=O)NCC(=O)N[C@@H](CCCNC(=N)N)C(=O)N[C@@H](CC(C)C)C(=O)N[C@@H](CSCc1ccc(COCc2ccc(CSC[C@H](NC(=O)[C@H](CC(C)C)NC(=O)[C@H](CCCNC(=N)N)NC(=O)[C@H](C)NC(=O)[C@H](CC(C)C)NC(=O)[C@H](CCC(=O)O)NC(=O)[C@H](CCCNC(=N)N)NC(=O)[C@H](CCC(=O)O)NC(=O)[C@H](CC(C)C)NC(=O)[C@H](CCC(=O)O)NC(=O)[C@H](CCCNC(=N)N)NC(=O)[C@H](CC(C)C)NC(=O)[C@H](CCCNC(=N)N)NC(=O)[C@H](Cc3c[nH]c4ccccc34)NC(=O)[C@H](C)NC(=O)[C@H](CC(C)C)NC(C)=O)C(N)=O)cc2)cc1)C(=O)N[C@H](C(=O)N[C@@H](CCC(=O)O)C(=O)N[C@H](C(=O)N[C@@H](CCCCNC(=N)N)C(=O)N[C@@H](CCCNC(=N)N)C(=O)N[C@@H](CC(C)C)C(=O)N[C@@H](CCCNC(=N)N)C(=O)N[C@@H](CC(N)=O)C(=O)NCC(=O)N[C@@H](CC(N)=O)C(N)=O)[C@@H](C)CC)[C@@H](C)O [CHC^Sos-5] (HELM PEPTIDE1{[ac].L.A.W.R.L.R.E.L.E.R.E.L.A.R.L.C.[am]}|PEPTIDE2{[ac].W.I.G.R.L.C.T.E.I.[N=C(N)NCCCC[C@H](N[*:1])C(=O)[*:2]].R.L.R.N.G.N.[am]}|CHEM1{[c1cc(C[*:1])ccc1COCc1ccc(C[*:2])cc1]}$PEPTIDE1,CHEM1,17:R3-1:R1|PEPTIDE2,CHEM1,7:R3-1:R2$$$V2.0)	–	–	–	–	–	–	–	–	2 ± 0.3	permeable	improves its aqueous solubility	0.3 ± 0.1	low micromolar affinity range	low micromolar affinity range	low micromolar affinity range	> 24	~60
